Results: patent US7960387B2, “2-(3-phenyl-2-piperazinyl-3,4-dihydroquinazolin-4-yl)acetic acids as antiviral agents, especially against cytomegaloviruses” (Bayer Schering Pharma Aktiengesellschaft, priority 2003, dated 2011)
pEC50: −log10 of the molar value. Counter-ions that a name gives are not always drawn. Like-named read-outs stand apart in the source and are kept apart here.

What was measured:
[1] = tested on: HCMV; experiment: Anti-HCMV cytopathogenicity test; assay type: cell-based, human cytomegalovirus; settings: read-out: HCMV EC50
Method: (§1) Anti-HCMV (Anti-Human Cytomegalovirus) Cytopathogenicity Tests The test compounds are employed as 50 millimolar (mM) solutions in dimethyl sulphoxide (DMSO). Ganciclovir®, Foscarnet® and Cidofovir® are used as reference compounds. After addition of in each case 2 μl of the 50, 5, 0.5 and 0.05 mM DMSO stock solutions to 98 μl portions of cell culture medium in row […] for duplicate determinations, 1:2 dilutions are carried out with 50 μl portions of medium up to row 11 of the 96-well plate. The wells in rows 1 and 12 each contain 50 μl of medium. In 150 μl of a suspension of 1×10^4 cells (human prepuce fibroblasts [NHDF]) are pipetted into each of the wells (row 1=cell control) and, in rows 2-12, a mixture of HCMV-infected and uninfected NHDF cells (M.O.I.=0.001-0.002), i.e. 1-2 infected cells per 1000 uninfected cells. Row 12 (without substance) serves as virus control. The final test concentrations are 250-0.0005 μM. The plates are incubated at 37° C./5% CO2 for 6 days, i.e. until all the cells are infected in the virus controls (100% cytopathogenic effect [CPE]). The wells are then fixed and stained by adding a mixture of formalin and Giemsa's dye (30 minutes), washed with double-distilled water and dried in a drying oven at 50° C. The plates are then assessed visually using an overhead microscope (Plaque Multiplier from Technomara). The following data can be acquired from the test plates: • CC50 (NHDF)=substance concentration in μM at which no visible cytostatic effects on the cells are evident by comparison with the untreated cell control; • EC50 (HCMV)=substance concentration in μM which inhibits the CPE (cytopathic effect) by 50% compared with the untreated virus control; • SI (selectivity index)=CC50 (NHDF)/EC50 (HCMV).

[2] = Anti-HCMV cytopathogenicity test: cytostatic effects on NHDF cells; assay type: cell-based; settings: NHDF cells (human prepuce fibroblasts), 6 days incubation, visual assessment, concentration at which no visible cytostatic effects are evident vs untreated cell control
Method: as §1

[3] = Human betaherpesvirus 5, 144 h, HCMV-infected NHDF cells, M.O.I. 0.001-0.002, 6 days, 50% inhibition of CPE vs untreated virus control

For Cc1cc(N2CCN(C3=Nc4ccccc4C(CC(=O)O)N3c3cccc(C(F)(F)F)c3)CC2)ccc1F (stereo not shown) [Example 1, {2-[4-(4-Fluoro-3-methylphenyl)-1-piperazinyl]-3-[3-(trifluoromethyl)phenyl]-3,4-dihydro-4-quinazolinyl}acetic acid], the pEC50 [1, 3] was 7.57 and the CC50 at 6 days [2] was 17 µM.
Molecule O=C(O)CC1c2ccccc2N=C(N2CCN(c3ccc(F)cc3)CC2)N1c1cc(C(F)(F)F)ccc1F (stereo not shown) [Example 2, {2-[4-(4-Fluorophenyl)-1-piperazinyl]-3-[2-fluoro-5-(trifluoromethyl)phenyl]-3,4-dihydro-4-quinazolinyl}acetic acid hydrochloride] has a pEC50 ([1]; Human betaherpesvirus 5, NHDF, 144 h) of 7.22 and a CC50 at 6 days [2] of 39 µM.
Molecule Cc1cc(Cl)ccc1N1C(N2CCN(c3cccc(Cl)c3)CC2)=Nc2ccccc2C1CC(=O)O (stereo not shown) [Example 6, {2-[4-(3-Chlorophenyl)-1-piperazinyl]-3-[4-chloro-2-methylphenyl]-3,4-dihydro-4-quinazolinyl}acetic acid] has a pEC50 [1, 3] of 6.40 and a CC50 at 6 days [2] of 22 µM.
With O=C(O)CC1c2ccccc2N=C(N2CCN(c3cccc(Cl)c3)CC2)N1c1ccc(F)c(Cl)c1 (stereo not shown) [Example 19] the pEC50 [1, 3] was 6.40 and the CC50 at 6 days [2] was 24 µM.
Molecule COc1cccc(N2CCN(C3=Nc4ccccc4C(CC(=O)O)N3c3cccc(C#N)c3)CC2)c1 (stereo not shown) [Example 23] has a pEC50 [1, 3] of 6.12 and a CC50 at 6 days [2] of 188 µM.
Work on COc1ccc(C(F)(F)F)cc1N1C(N2CCN(c3cccc(Cl)c3)CC2)=Nc2ccccc2C1CC(=O)O (stereo not shown) [Example 26, {2-[4-(3-Chlorophenyl)-1-piperazinyl]-3-[2-methoxy-5-(trifluoromethyl)phenyl]-3,4-dihydro-4-quinazolinyl)acetic acid] yielded a pEC50 [1, 3] of 7.72 and a CC50 at 6 days [2] of 31 µM.
Work on COc1ccc(C(F)(F)F)cc1N1C(N2CCN(c3cccc(C)c3)CC2)=Nc2ccccc2C1CC(=O)O (stereo not shown) [Example 27, {2-[4-(3-Methylphenyl)-1-piperazinyl]-3-[2-methoxy-5-(trifluoromethyl)phenyl]-3,4-dihydro-4-quinazolinyl}acetic acid] yielded a pEC50 [1, 3] of 6.89 and a CC50 at 6 days [2] of 188 µM.
Work on COc1cccc(N2CCN(C3=Nc4ccccc4C(CC(=O)O)N3c3cc(Cl)ccc3OC)CC2)c1 (stereo not shown) [Example 28, {2-[4-(3-Methoxyphenyl)-1-piperazinyl]-3-[2-methoxy-5-chlorophenyl]-3,4-dihydro-4-quinazolinyl]acetic acid] yielded a pEC50 [1, 3] of 7.60 and a CC50 at 6 days [2] of 63 µM.
For COc1ccc(Cl)cc1N1C(N2CCN(c3ccc(F)cc3)CC2)=Nc2ccccc2C1CC(=O)O (stereo not shown) [Example 29, {2-[4-(4-Fluorophenyl)-1-piperazinyl]-3-[2-methoxy-5-chlorophenyl]-3,4-dihydro-4-quinazolinyl}acetic acid], the pEC50 [1, 3] was 7.15 and the CC50 at 6 days [2] was 125 µM.
For COc1ccc(C)cc1N1C(N2CCN(c3cccc(C)c3)CC2)=Nc2ccccc2C1CC(=O)O (stereo not shown) [Example 30, {2-[4-(3-Methylpheny)-1-piperazinyl]-3-[2-methoxy-5-methylphenyl]-3,4-dihydro-4-quinazolinyl}acetic acid], the pEC50 [1, 3] was 6.60 and the CC50 at 6 days [2] was 250 µM.
COc1ccc(C)cc1N1C(N2CCN(c3cccc(Cl)c3)CC2)=Nc2ccccc2C1CC(=O)O (stereo not shown) [Example 31, {2-[4-(3-Chlorophenyl)-1-piperazinyl]-3-[2-methoxy-5-methylphenyl]-3,4-dihydro-4-quinazolinyl}acetic acid] gave a pEC50 [1, 3] of 6.85 and a CC50 at 6 days [2] of 63 µM.
